Measured values as given in ChEMBL document CHEMBL1144796, “Carbonic anhydrase inhibitors. Interaction of indapamide and related diuretics with 12 mammalian isozymes and X-ray crystallographic studies for the indapamide-isozyme II adduct” (Bioorg Med Chem Lett, 2008).

Key:
[1] = biological target: Carbonic anhydrase 2 (Homo sapiens) (UniProt P00918)
[2] = biological target: Carbonic anhydrase 3 (Homo sapiens) (UniProt P07451)
[3] = biological target: Carbonic anhydrase 5A, mitochondrial (Homo sapiens) (UniProt P35218)
Chain of Carbonic anhydrase 5A, mitochondrial (Homo sapiens) (P35218 whole entry): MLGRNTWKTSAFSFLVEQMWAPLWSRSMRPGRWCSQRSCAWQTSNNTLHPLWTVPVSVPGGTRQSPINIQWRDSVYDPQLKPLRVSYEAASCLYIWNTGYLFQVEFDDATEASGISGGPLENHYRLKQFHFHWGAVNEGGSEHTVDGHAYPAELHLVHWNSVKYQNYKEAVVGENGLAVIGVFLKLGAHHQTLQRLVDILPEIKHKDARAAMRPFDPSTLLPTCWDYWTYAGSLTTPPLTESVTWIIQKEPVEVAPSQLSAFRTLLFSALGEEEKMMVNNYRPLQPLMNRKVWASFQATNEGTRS

[4] = biological target: Carbonic anhydrase 5B, mitochondrial (Homo sapiens) (UniProt Q9Y2D0)
Chain of Carbonic anhydrase 5B, mitochondrial (Homo sapiens) (Q9Y2D0 whole entry): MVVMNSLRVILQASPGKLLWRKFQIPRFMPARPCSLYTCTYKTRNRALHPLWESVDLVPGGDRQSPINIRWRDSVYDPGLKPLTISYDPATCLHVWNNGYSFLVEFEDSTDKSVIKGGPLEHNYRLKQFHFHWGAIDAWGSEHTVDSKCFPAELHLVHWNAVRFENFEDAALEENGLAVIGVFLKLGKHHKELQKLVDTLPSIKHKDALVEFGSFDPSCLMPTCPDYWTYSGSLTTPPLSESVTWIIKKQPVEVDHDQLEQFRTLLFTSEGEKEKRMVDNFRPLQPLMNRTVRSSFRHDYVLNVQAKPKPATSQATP

[5] = biological target: Carbonic anhydrase 12 (Homo sapiens) (UniProt O43570)
Chain of Carbonic anhydrase 12 (Homo sapiens) (O43570 whole entry): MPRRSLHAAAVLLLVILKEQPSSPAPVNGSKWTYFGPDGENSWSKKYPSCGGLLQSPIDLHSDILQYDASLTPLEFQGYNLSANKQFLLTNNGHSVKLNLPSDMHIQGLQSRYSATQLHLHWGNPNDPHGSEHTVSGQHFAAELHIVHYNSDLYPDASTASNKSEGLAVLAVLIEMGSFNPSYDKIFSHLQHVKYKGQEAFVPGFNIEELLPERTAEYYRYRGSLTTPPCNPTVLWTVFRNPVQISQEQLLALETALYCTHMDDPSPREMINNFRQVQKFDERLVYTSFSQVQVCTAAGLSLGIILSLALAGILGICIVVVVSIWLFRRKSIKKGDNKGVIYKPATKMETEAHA

[6] = biological target: Carbonic anhydrase 7 (Homo sapiens) (UniProt P43166)
Chain of Carbonic anhydrase 7 (Homo sapiens) (P43166 whole entry): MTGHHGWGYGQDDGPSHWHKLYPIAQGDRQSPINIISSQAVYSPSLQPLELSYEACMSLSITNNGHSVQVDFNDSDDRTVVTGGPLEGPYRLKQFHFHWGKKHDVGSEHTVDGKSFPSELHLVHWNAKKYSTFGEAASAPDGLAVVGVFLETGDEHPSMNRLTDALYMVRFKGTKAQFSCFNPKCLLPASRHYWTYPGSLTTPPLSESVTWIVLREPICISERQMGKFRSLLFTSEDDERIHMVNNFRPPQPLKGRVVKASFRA

[7] = biological target: Carbonic anhydrase 9 (Homo sapiens) (UniProt Q16790)
[8] = biological target: Carbonic anhydrase 13 (Mus musculus) (UniProt Q9D6N1); test: Inhibition of mouse full length carbonic anhydrase 13
Chain of Carbonic anhydrase 13 (Mus musculus) (Q9D6N1 whole entry, looked up): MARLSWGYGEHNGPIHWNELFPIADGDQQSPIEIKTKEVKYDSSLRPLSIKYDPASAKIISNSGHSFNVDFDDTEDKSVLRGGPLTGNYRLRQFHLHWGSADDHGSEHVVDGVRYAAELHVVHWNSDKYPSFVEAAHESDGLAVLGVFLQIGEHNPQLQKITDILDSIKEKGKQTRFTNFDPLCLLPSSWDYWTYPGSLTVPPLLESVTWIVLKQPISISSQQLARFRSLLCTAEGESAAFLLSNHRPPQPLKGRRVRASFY

[9] = biological target: Carbonic anhydrase 14 (Homo sapiens) (UniProt Q9ULX7)
Chain of Carbonic anhydrase 14 (Homo sapiens) (Q9ULX7 whole entry): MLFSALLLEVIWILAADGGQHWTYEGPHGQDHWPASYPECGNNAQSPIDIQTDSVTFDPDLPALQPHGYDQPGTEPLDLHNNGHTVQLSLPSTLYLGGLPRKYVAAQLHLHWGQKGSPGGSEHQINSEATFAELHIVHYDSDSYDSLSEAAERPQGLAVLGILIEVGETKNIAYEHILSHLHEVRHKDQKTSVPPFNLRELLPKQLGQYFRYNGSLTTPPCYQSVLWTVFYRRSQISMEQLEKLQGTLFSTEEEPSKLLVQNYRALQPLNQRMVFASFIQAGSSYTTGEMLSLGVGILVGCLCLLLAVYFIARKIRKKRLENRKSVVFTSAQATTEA

[10] = biological target: Carbonic anhydrase 4 (Homo sapiens) (UniProt P22748)
Chain of Carbonic anhydrase 4 (Homo sapiens) (P22748 whole entry): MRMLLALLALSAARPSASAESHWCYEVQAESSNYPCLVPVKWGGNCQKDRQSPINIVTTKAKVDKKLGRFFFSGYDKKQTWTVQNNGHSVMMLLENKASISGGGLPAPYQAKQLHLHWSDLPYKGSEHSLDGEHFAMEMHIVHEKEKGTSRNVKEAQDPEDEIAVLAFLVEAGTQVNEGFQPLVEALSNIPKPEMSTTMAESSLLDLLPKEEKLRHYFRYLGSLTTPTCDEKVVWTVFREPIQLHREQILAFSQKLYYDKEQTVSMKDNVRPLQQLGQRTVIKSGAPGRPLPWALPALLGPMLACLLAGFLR

[11] = biological target: Carbonic anhydrase 6 (Homo sapiens) (UniProt P23280)
Chain of Carbonic anhydrase 6 (Homo sapiens) (P23280 whole entry): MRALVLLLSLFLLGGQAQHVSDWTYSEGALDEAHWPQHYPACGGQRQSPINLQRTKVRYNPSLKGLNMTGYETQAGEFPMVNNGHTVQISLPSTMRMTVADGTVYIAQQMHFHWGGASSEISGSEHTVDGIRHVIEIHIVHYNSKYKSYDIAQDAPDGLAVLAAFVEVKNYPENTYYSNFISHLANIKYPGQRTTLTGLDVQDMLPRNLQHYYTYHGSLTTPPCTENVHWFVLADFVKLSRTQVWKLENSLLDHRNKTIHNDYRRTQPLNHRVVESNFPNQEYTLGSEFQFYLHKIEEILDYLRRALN

Chain of Carbonic anhydrase 3 (Homo sapiens) (P07451 whole entry): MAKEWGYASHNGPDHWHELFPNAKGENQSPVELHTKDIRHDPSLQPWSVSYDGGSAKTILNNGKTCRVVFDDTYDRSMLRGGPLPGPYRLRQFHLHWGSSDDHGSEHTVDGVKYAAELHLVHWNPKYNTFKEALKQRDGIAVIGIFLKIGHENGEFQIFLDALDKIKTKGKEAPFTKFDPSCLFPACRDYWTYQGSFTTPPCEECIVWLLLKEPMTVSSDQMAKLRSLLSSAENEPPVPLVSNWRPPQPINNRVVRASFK

Row | SMILES | Ki [1] [nM] | Ki [2] | Ki [3] [nM] | Ki [4] [nM] | Ki [5] [nM] | Ki [6] [nM] | Ki [7] [nM] | Ki [8] [nM] | Ki [9] [nM] | Ki [10] [nM] | Ki [11] [nM]
1 | CC(=O)/N=c1/sc(S(N)(=O)=O)nn1C | – | > 2 10^5nM | – | – | – | – | – | – | – | – | –
2 | CCCCNc1cc(C(=O)O)cc(S(N)(=O)=O)c1Oc1ccccc1 | 6980 | > 2 10^5nM | 700 | 159 | 21.1 | 62 | 25.8 | 2570 | 250 | 303 | 3890
3 | NS(=O)(=O)c1cc(C2(O)NC(=O)c3ccccc32)ccc1Cl (stereo not drawn) | 138 | – | 917 | 9 | – | 2.8 | 23 | 15 | 4130 | 196 | 1350
4 | NS(=O)(=O)c1cc(C(=O)O)c(NCc2ccco2)cc1Cl | – | > 2 10^5nM | – | – | – | – | – | – | – | – | –

Second part, the compound after the results:

Row | Ki [1] [nM] | Ki [2] | Ki [3] [nM] | Ki [4] [nM] | Ki [5] [nM] | Ki [6] [nM] | Ki [7] [nM] | Ki [8] [nM] | Ki [9] [nM] | Ki [10] [nM] | Ki [11] [nM] | SMILES
5 | 1260 | – | – | – | – | – | – | – | – | – | – | CCC1NC(=O)c2cc(S(N)(=O)=O)c(Cl)cc2N1 (stereo not drawn)
6 | – | > 2 10^5nM | 4220 | 603 | 355 | – | 367 | 3880 | 4100 | 427 | 3660 | CC1Nc2cc(Cl)c(S(N)(=O)=O)cc2S(=O)(=O)N1C (stereo not drawn)
7 | 435 | > 2 10^5nM | 10200 | 429 | 305 | 433 | 412 | 15400 | 360 | 4780 | 8250 | CC1Nc2cc(C(F)(F)F)c(S(N)(=O)=O)cc2S(=O)(=O)N1C (stereo not drawn)
8 | 2000 | > 2 10^5nM | 750 | 312 | 5.4 | – | 320 | 15 | 5430 | 216 | 1710 | Cc1ccccc1N1C(=O)c2cc(S(N)(=O)=O)c(Cl)cc2NC1C (stereo not drawn)
